The source of these data is PubChem BioAssay (NCI).

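These data come from cells grown in 96-well plates and exposed to compound for 48 hours at five concentrations. The concentration for full growth arrest is given as TGI.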

Among the test systems are ACHN renal; COLO 205 colon; HL-60(TB) leukemia; MCF7 breast; MDA-MB-231 breast; OVCAR-3 ovarian; SK-MEL-5 melanoma; SK-OV-3 ovarian; SNB-75 CNS; SW-620 colon; T-47D breast; TK-10 renal; K-562 leukemia; NCI-H522 lung; RPMI-8226 leukemia.
Assay in all cases: NCI tumour cell line growth inhibition, 48 h

Regarding `CC1(C)CC(=O)C(/C=N/c2nc(-c3ccccc3)cs2)=C(O)C1`, the TGI in the experiment with ACHN renal was over 100 µM; with COLO 205 colon, over 100 µM; in the experiment on HL-60(TB) leukemia it was over 100 µM; with MCF7 breast it was over 100 µM; in the experiment on MDA-MB-231 breast, 96.8 µM; with OVCAR-3 ovarian, over 100 µM. Besides, the TGI in the experiment on SK-MEL-5 melanoma, in the experiment on SK-OV-3 ovarian, in the experiment on SNB-75 CNS, in the experiment with SW-620 colon, with T-47D breast and in the experiment on TK-10 renal was over 100 µM throughout.

Regarding `CC(=O)N[C@@H](Cc1ccc(O)cn1)C(=O)NCc1cccc(Cl)c1`, the TGI in the experiment with ACHN renal, with COLO 205 colon, with HL-60(TB) leukemia, with K-562 leukemia, in the experiment on MCF7 breast and in the experiment on NCI-H522 lung was over 100 µM each time. Moreover, the TGI in the experiment with OVCAR-3 ovarian, in the experiment with RPMI-8226 leukemia, in the experiment with SK-MEL-5 melanoma, with SK-OV-3 ovarian, in the experiment on SW-620 colon and in the experiment on T-47D breast was over 100 µM in each case. In addition, in the experiment with TK-10 renal, the TGI was over 100 µM.

On to `CNc1nc2n(CCO)c(-c3ccccc3)c(-c3ccccc3)nc-2c(=O)n1`, for which the TGI in the experiment with ACHN renal, with COLO 205 colon, in the experiment with K-562 leukemia, in the experiment with MCF7 breast, with MDA-MB-231 breast and in the experiment on NCI-H522 lung was over 50 µM each time. The TGI in the experiment on OVCAR-3 ovarian, with RPMI-8226 leukemia, in the experiment on SK-MEL-5 melanoma, with SK-OV-3 ovarian, with SNB-75 CNS and in the experiment on SW-620 colon was over 50 µM each time. The TGI with T-47D breast and with TK-10 renal was over 50 µM each time.

Take `c1csc(-c2cc(-c3cccs3)c(-c3ccsc3)s2)c1`: the TGI in the experiment with ACHN renal, in the experiment with COLO 205 colon, in the experiment on HL-60(TB) leukemia, in the experiment on K-562 leukemia, in the experiment with MCF7 breast and in the experiment on MDA-MB-231 breast was over 100 µM in each case. Besides, the TGI in the experiment on RPMI-8226 leukemia, in the experiment on SK-MEL-5 melanoma, in the experiment with SK-OV-3 ovarian, in the experiment on SNB-75 CNS, in the experiment on SW-620 colon and in the experiment with T-47D breast was over 100 µM each time. This compound also came in with a TGI in the experiment with TK-10 renal of over 100 µM.

On to `COc1ccc(O)c(/C(C)=N/NC(=S)N(C)C)c1`, for which the TGI with ACHN renal, with COLO 205 colon, in the experiment with HL-60(TB) leukemia, with K-562 leukemia, in the experiment on MDA-MB-231 breast and in the experiment with NCI-H522 lung was over 100 µM in each case. Also, the TGI with OVCAR-3 ovarian, in the experiment with RPMI-8226 leukemia, in the experiment with SK-MEL-5 melanoma, in the experiment on SK-OV-3 ovarian, with SNB-75 CNS and in the experiment with SW-620 colon was over 100 µM in each case. The compound also registered a TGI in the experiment on T-47D breast of over 100 µM.

For `c1ccc2c(c1)nc1n2CNC1`, the TGI in the experiment with ACHN renal, with COLO 205 colon, in the experiment on HL-60(TB) leukemia, with K-562 leukemia, in the experiment with MCF7 breast and in the experiment with MDA-MB-231 breast was over 100 µM throughout. Also, the TGI with OVCAR-3 ovarian, in the experiment on RPMI-8226 leukemia, in the experiment with SK-MEL-5 melanoma, in the experiment with SK-OV-3 ovarian, in the experiment on SNB-75 CNS and in the experiment with SW-620 colon was over 100 µM in each case. Moreover, the TGI in the experiment on T-47D breast and in the experiment on TK-10 renal was over 100 µM each time.

Turning to `CN(C)/C=N/S(=O)(=O)c1nn2c(C=O)c(-c3ccc(Cl)cc3)nc2s1`, the TGI was determined as 2.36 µM in the experiment with ACHN renal; 2.81 µM in the experiment with COLO 205 colon; 3.04 µM with K-562 leukemia; 2.68 µM in the experiment with MCF7 breast; 7.77 µM in the experiment with MDA-MB-231 breast; 2.12 µM in the experiment on NCI-H522 lung. Moreover, the TGI with OVCAR-3 ovarian came to 2.87 µM; in the experiment on RPMI-8226 leukemia, 4.22 µM; with SK-MEL-5 melanoma, 2.98 µM; in the experiment with SK-OV-3 ovarian, 29.5 µM; in the experiment on SNB-75 CNS, 24.3 µM; with SW-620 colon, 1.52 µM. Further, the TGI in the experiment with T-47D breast turned out to be 3.36 µM; with TK-10 renal it was 2.88 µM.

Turning to `COc1cc2c(cc1OC)CCc1cc(OC)c(OC)cc1CC2`, the TGI with ACHN renal, in the experiment on COLO 205 colon, in the experiment on K-562 leukemia, in the experiment on MCF7 breast, with MDA-MB-231 breast and in the experiment on OVCAR-3 ovarian was over 100 µM in each case. For the same compound, the TGI in the experiment on SK-MEL-5 melanoma, in the experiment with SK-OV-3 ovarian, in the experiment with SNB-75 CNS, with SW-620 colon, in the experiment with T-47D breast and in the experiment on TK-10 renal was over 100 µM throughout.

For the compound `CN1C2CCC1CC(CCNC(c1ccccc1)c1ccccc1)C2` (centres undefined), the TGI with ACHN renal is over 100 µM; in the experiment on COLO 205 colon, 23.6 µM; with HL-60(TB) leukemia, over 100 µM; in the experiment with K-562 leukemia it was 27.4 µM; in the experiment on MDA-MB-231 breast, 72.4 µM; with NCI-H522 lung, 85.7 µM. Besides, the TGI was over 100 µM in the experiment on OVCAR-3 ovarian; 56.1 µM in the experiment on RPMI-8226 leukemia; 25.5 µM in the experiment with SK-MEL-5 melanoma; over 100 µM in the experiment on SK-OV-3 ovarian; over 100 µM with SNB-75 CNS; over 100 µM in the experiment on SW-620 colon. Moreover, the TGI in the experiment on T-47D breast came to 72.2 µM; in the experiment on TK-10 renal it was 55 µM.

With `COC(=O)C(NC(=O)c1ccccc1)c1ccco1` (centres undefined), the TGI in the experiment with ACHN renal, in the experiment on HL-60(TB) leukemia, in the experiment on K-562 leukemia, in the experiment with MCF7 breast, in the experiment on OVCAR-3 ovarian and in the experiment with RPMI-8226 leukemia was over 100 µM in each case. Further, the TGI with SK-MEL-5 melanoma, with SK-OV-3 ovarian, in the experiment on SNB-75 CNS, in the experiment on SW-620 colon, with T-47D breast and with TK-10 renal was over 100 µM each time.

On to `c1ccc(CSP234N5CCN2CCN3CCN4CC5)c(CSP234N5CCN2CCN3CCN4CC5)c1`, for which the TGI in the experiment on ACHN renal is over 100 µM; in the experiment on COLO 205 colon, 47.3 µM; in the experiment with HL-60(TB) leukemia, 77 µM; in the experiment on MCF7 breast it was over 100 µM; in the experiment on MDA-MB-231 breast it was over 100 µM; in the experiment with NCI-H522 lung, over 100 µM. Moreover, the TGI with OVCAR-3 ovarian, with RPMI-8226 leukemia, in the experiment with SK-MEL-5 melanoma, with SNB-75 CNS, in the experiment with SW-620 colon and in the experiment on T-47D breast was over 100 µM throughout. The compound further came in with a TGI in the experiment on TK-10 renal of over 100 µM.
